Results: patent publication US8901164B2, “Amphipathic and other double-sided alpha-helix mimetics based on a 1,2-diphenylacetylene scaffold” (University of Maryland, Baltimore, priority 2013, dated 2014)

Biological target: Mcl-1-Bak-BH3 complex (Homo sapiens, UniProt Q07820)
Test: Antagonism of the Mcl-1-Bak-BH3 complex (preliminary studies)
Type: binding
Conditions: read-out: IC50 for antagonizing the Mcl-1-Bak-BH3 complex

Mcl-1-Bak-BH3 complex, sequence (Q07820 172-327 limits assumed, one chain of several): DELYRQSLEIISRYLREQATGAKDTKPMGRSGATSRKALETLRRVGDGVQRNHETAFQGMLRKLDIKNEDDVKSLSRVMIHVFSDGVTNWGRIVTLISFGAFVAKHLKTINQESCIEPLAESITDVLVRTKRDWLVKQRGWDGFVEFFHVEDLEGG

Compound: CC(C)COc1ccc(C(=O)NCCN)c(C#Cc2cc(OCc3ccccc3)ccc2NC(=O)C(=O)O)c1OCC(C)C [Compound 14, 2-((2-((6-((2-Aminoethyl)carbamoyl)-2,3-diisobutoxyphenyl)ethynyl)-4-(benzyloxy)phenyl)amino)-2-oxoacetic acid]
- IC50: 3.24 ± 0.48 µM
